Data as given in patent US12404259B2, “Inhibitors of extracellular signal-regulated kinase” (GEN1E LIFESCIENCES INC., priority 2023, dated 2025).
Where two headings read alike, the source gives them in different places.

Assays:
Assay type in all cases: cell-based
[1] = system: immortalized human T lymphocyte Jurkat cells; assay: Cytotoxicity in cancer cell lines (CellTiter-Glo), Jurkat; settings: mean of three tests
Source text: (§1) All cells were obtained from ATCC. […] Normocin® was obtained from InvivoGen. FBS was obtained from Gibco. […] All test compounds were synthesized as described herein.

[2] = system: glioblastoma cell line U87; assay: Cytotoxicity in cancer cell lines (CellTiter-Glo), U87; settings: Homo sapiens, U-87 MG, U87 cells, mean of three tests
Source text: as §1

[3] = system: melanoma cell line RPMI-7951; assay: Cytotoxicity in cancer cell lines (CellTiter-Glo), RPMI-7951; settings: Homo sapiens, RPMI-7951 cells, mean of three tests
Source text: as §1

melanoma cell line A375 = assay: Cytotoxicity in cancer cell lines (CellTiter-Glo), A375; settings: Homo sapiens, A-375, A375 cells, mean of three tests
Source text: as §1

[4] = system: human pancreatic carcinoma cell line PL45; assay: Cytotoxicity in cancer cell lines (CellTiter-Glo), PL45; settings: PL45 cells, mean of three tests
Source text: as §1

[5] = 48 hours, read-out: Cytotoxicity EC50 at 48 hours, A375
[6] = 48 hours, read-out: Cytotoxicity EC50 at 48 hours, PL45

## O=S1(=O)C=CC(OS(=O)(=O)c2ccc(Oc3ccccc3)cc2)C1 (centres unmarked) [Compound 1, 1,1-dioxido-2,3-dihydrothiophen-3-yl 4-phenoxybenzenesulfonate]
[1]; 48 hours, read-out: Cytotoxicity EC50 at 48 hours, Jurkat
  EC50: 400 nM
[1]; 72 hours, read-out: Cytotoxicity EC50 at 72 hours, Jurkat
  EC50: 200 nM
[2]; 48 hours, read-out: Cytotoxicity EC50 at 48 hours, U87
  EC50: 1300 nM
[2]; 72 hours, read-out: Cytotoxicity EC50 at 72 hours, U87
  EC50: 900 nM
[3]; 48 hours, read-out: Cytotoxicity EC50 at 48 hours, RPMI
  EC50: 600 nM
[3]; 72 hours, read-out: Cytotoxicity EC50 at 72 hours, RPMI
  EC50: 200 nM
Melanoma cell line A375; [5]
  EC50: 2500 nM
Melanoma cell line A375; 72 hours, read-out: Cytotoxicity EC50 at 72 hours, A375
  EC50: 13000 nM
[4]; [6]
  EC50: 2100 nM
[4]; 72 hours, read-out: Cytotoxicity EC50 at 72 hours, PL45
  EC50: 200 nM

## O=S1(=O)C=C[C@H](OS(=O)(=O)c2ccc(Oc3ccccc3)cc2)C1 [Compound 1a, (S)-1,1-dioxido-2,3-dihydrothiophen-3-yl 4-phenoxybenzenesulfonate]
Melanoma cell line A375; [5]
  EC50: 1300 nM
[4]; [6]
  EC50: 2100 nM

## O=S1(=O)C=C[C@@H](OS(=O)(=O)c2ccc(Oc3ccccc3)cc2)C1 [Compound 1b, (R)-1,1-dioxido-2,3-dihydrothiophen-3-yl 4-phenoxybenzenesulfonate]
Melanoma cell line A375; [5]
  EC50: 2500 nM
[4]; [6]
  EC50: 3000 nM
